Test results: paper PMC8151276, “An Integrated Approach toward NanoBRET Tracers for Analysis of GPCR Ligand Engagement” (Molecules, 2021)

Legend:
Format in all cases: binding
P2RY13 = target: T1, P2RY13 (Homo sapiens, UniProt Q9BPV8); experiment: NanoBRET screen HiBiT-P2RY13 in HEK293; details: P2RY13
T1 construct: purchased Promega (in-house HiBiT-GPCR construct library, NanoBRET)
T1 sequence (Q9BPV8 1-354): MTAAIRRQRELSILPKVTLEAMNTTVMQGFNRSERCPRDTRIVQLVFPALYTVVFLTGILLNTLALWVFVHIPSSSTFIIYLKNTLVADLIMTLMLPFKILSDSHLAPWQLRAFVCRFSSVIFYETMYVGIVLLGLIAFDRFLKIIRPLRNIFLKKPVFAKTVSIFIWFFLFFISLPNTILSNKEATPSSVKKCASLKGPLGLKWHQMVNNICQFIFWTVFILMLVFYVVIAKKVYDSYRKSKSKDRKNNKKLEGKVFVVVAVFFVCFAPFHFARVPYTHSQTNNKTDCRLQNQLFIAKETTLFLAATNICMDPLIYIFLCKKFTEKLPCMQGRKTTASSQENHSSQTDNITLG
Method: (§1) Each tracer candidate was screened across the entire library of HiBiT-GPCR constructs using NanoBRET as the detection modality. As depicted in Figure 4A, the specificity of interactions was evaluated through decrease in BRET due to competitive displacement of a bound tracer by excess parental compound. Each tracer was analyzed for binding to each HiBiT-GPCR fusion in the absence and in the presence of competing parental compound. Briefly, HEK293 cells were transfected with HiBiT-GPCR constructs diluted into promoterless DNA to reduce expression and maximize translocation to the cell surface. Each tracer candidate was then screened at concentrations of 1 μM and 0.1 μM across cells expressing these fusions. Cells were treated for 1.5 h with tracer either alone or in the presence of 20 μM competing parental compound (i.e., control). BRET was measured upon addition of purified LgBiT and subsequent complementation with HiBiT genetically fused to a GPCR. The specificity of interactions was assessed through a decrease in BRET signal due to competitive displacement of the bound tracer. To further gauge the robustness of these interactions, the fold response over the control (i.e., BRETtracer/BRETcontrol) was calculated. We chose a 1.5-fold response, which translates to ≥7-fold signal over noise as the minimal threshold required to score an interaction as positive. […]. Below we highlight the screening results obtained for our exemplary fluorescent tracers based on Clozapine, Amitriptyline and AZD1283.
(§2) HiBiT-GPCR DNA constructs were diluted in 10 mM Tris pH 8 to a final concentration of 0.01 μg/μL, arrayed in 96-well plates and stored at −20 °C. For transfection, HEK293 cells were suspended in Opti-MEM (without phenol red) supplemented with 2% fetal bovine serum (Seradigm) and 100 units/mL penicillin–streptomycin (Gibco) at a final concentration of 220,000 cells/mL and dispensed into white 96-well plates at 90 μL/well. Subsequent transfections and screens were carried using an Agilent Bravo Automated Liquid Handling Platform. First, the 96-well HiBiT DNA arrays were diluted 25-fold in Opti-MEM (without serum or phenol red) to a final concentration of 0.0004 μg/μL and 20 μL of the diluted DNAs were transferred into new 96-well plates. Next, promoterless carrier DNA (1 μg/μL) was diluted 25-fold (0.04 μg/μL) and then dispensed into the diluted arrays at 20 μL/well. Following brief mixing, Viafect transfection reagent (Promega) diluted 16-fold into Opti-MEM was dispensed into the plates at 40 μL/well. After mixing by pipetting, plates were incubated for 10 min on the pipetting station deck. The DNA-transfection reagent complexes were then added to plates containing cells. To facilitate the screen, 10 μL of DNA-transfection reagent complexes were added in duplicates to the top 4 and bottom 4 rows, resulting in two identical 48-well arrays per plate. Plates with transfected cells were incubated for 18–20 h at 37 °C/5% CO2. A screen of each tracer across the entire library using two different concentrations requires duplicate plates of transfected cells. Depending on the number of tracers being screened, transfections can be scaled up using the same ratios. The next day, for each tracer, four 20× screening solutions in tracer dilution buffer (Promega) were prepared: two duplicates at final concentration of 20 μM and two duplicates at a final concentration of 2 μM. A competing unmodified compound was added to one of each duplicate at a final concentration of 400 μM. The four resulting solutions were diluted 4-fold in Opti-MEM without serum or phenol red to generate 5× solutions (5 µM and 0.5 µM tracer +/− 100 μM competing compound). To screen the library, a BioTek MultiFlo FX liquid dispenser was used to dispense 22.5 µL of tracer solution to the top 4 rows and 22.5 µL tracer + competing compound solution to the 4 bottom rows. Plates were briefly mixed on an orbital shaker and incubated for 1.5 h at room temperature. […]

FZD7 = target: T2, FZD7 (Homo sapiens, UniProt O75084); experiment: NanoBRET screen HiBiT-FZD7 in HEK293; details: FZD7
T2 construct: purchased Promega (in-house HiBiT-GPCR construct library, NanoBRET)
Method: as §1, §2

FPR1 = target: T3, FPR1 (Homo sapiens, UniProt P21462); experiment: NanoBRET screen HiBiT-FPR1 in HEK293; details: FPR1
T3 construct: purchased Promega (in-house HiBiT-GPCR construct library, NanoBRET)
T3 sequence (P21462 1-350): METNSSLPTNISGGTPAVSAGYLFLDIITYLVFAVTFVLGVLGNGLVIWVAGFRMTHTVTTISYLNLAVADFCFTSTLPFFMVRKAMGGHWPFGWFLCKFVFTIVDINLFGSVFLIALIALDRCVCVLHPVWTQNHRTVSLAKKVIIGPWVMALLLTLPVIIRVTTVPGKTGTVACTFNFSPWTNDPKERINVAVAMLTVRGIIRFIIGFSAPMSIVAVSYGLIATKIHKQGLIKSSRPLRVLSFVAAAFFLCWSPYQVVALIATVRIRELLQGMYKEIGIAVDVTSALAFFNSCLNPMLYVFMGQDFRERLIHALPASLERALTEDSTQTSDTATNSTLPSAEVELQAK
Method: as §1, §2

OPRL1 = target: T4, OPRL1 (Homo sapiens, UniProt P41146); experiment: NanoBRET screen HiBiT-OPRL1 in HEK293; details: OPRL1
T4 construct: purchased Promega (in-house HiBiT-GPCR construct library, NanoBRET)
T4 sequence (P41146 whole entry): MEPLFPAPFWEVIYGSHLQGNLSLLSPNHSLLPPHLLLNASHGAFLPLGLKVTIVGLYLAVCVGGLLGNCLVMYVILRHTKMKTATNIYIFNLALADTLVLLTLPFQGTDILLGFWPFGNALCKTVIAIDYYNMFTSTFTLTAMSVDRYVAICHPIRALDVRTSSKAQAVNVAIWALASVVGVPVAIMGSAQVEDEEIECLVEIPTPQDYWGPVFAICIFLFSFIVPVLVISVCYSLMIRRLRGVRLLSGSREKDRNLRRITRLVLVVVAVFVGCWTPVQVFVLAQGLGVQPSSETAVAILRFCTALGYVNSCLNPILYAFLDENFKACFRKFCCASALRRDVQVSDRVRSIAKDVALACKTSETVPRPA
Method: as §1, §2

F2RL3 = target: T5, F2RL3 (Homo sapiens, UniProt Q96RI0); experiment: NanoBRET screen HiBiT-F2RL3 in HEK293; details: F2RL3
T5 construct: purchased Promega (in-house HiBiT-GPCR construct library, NanoBRET)
T5 sequence (Q96RI0 18-385): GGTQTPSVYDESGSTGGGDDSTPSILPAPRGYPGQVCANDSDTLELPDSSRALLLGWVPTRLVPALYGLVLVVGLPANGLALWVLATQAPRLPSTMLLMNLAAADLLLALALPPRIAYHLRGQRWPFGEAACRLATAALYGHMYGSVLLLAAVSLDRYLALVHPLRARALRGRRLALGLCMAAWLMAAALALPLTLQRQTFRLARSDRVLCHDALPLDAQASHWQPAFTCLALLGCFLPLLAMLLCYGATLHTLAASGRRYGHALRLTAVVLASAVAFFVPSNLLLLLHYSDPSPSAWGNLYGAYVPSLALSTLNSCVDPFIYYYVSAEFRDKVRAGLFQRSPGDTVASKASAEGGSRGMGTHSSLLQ
Method: as §1, §2

## CC(C)N(CC[C@H](c1ccccc1)c1cc(CCNC(=O)CCOCCOCCOCCOCCNC(=O)CCc2ccc3n2[B-](F)(F)[N+]2=C(c4ccc[nH]4)C=CC2=C3)ccc1O)C(C)C [Tolterodine-2-NB590]
P2RY13; tracer 0.1μM
  NanoBRET Fold Response: 1.26
P2RY13; tracer 1μM
  NanoBRET Fold Response: 1.28
FZD7; tracer 0.1μM
  NanoBRET Fold Response: 1.00
FZD7; tracer 1μM
  NanoBRET Fold Response: 1.12
FPR1; tracer 0.1μM
  NanoBRET Fold Response: 1.07
FPR1; tracer 1μM
  NanoBRET Fold Response: 0.85
OPRL1; tracer 0.1μM
  NanoBRET Fold Response: 1.07
OPRL1; tracer 1μM
  NanoBRET Fold Response: 0.90
F2RL3; tracer 0.1μM
  NanoBRET Fold Response: 1.08
F2RL3; tracer 1μM
  NanoBRET Fold Response: 0.97

## CC(C)N(CC[C@H](c1ccccc1)c1cc(CCNC(=O)c2ccc(CNC(=O)CCc3ccc4n3[B-](F)(F)[N+]3=C(c5ccc[nH]5)C=CC3=C4)cc2)ccc1O)C(C)C [Tolterodine-BZ-NB590]
P2RY13; tracer 0.1μM
  NanoBRET Fold Response: 0.89
P2RY13; tracer 1μM
  NanoBRET Fold Response: 0.94
FZD7; tracer 0.1μM
  NanoBRET Fold Response: 1.04
FZD7; tracer 1μM
  NanoBRET Fold Response: 1.06
FPR1; tracer 0.1μM
  NanoBRET Fold Response: 1.02
FPR1; tracer 1μM
  NanoBRET Fold Response: 1.02
OPRL1; tracer 0.1μM
  NanoBRET Fold Response: 0.92
OPRL1; tracer 1μM
  NanoBRET Fold Response: 0.88
F2RL3; tracer 0.1μM
  NanoBRET Fold Response: 1.03
F2RL3; tracer 1μM
  NanoBRET Fold Response: 1.06

## CCCn1c(=O)c2[nH]c(-c3ccc(OCC(=O)NCCNC(=O)CCOCCNC(=O)c4ccc(CNC(=O)CCc5ccc6n5[B-](F)(F)[N+]5=C(c7ccc[nH]7)C=CC5=C6)cc4)cc3)nc2n(CCC)c1=O [XAC-3-NB590]
P2RY13; tracer 0.1μM
  NanoBRET Fold Response: 1.00
P2RY13; tracer 1μM
  NanoBRET Fold Response: 1.03
FZD7; tracer 0.1μM
  NanoBRET Fold Response: 1.09
FZD7; tracer 1μM
  NanoBRET Fold Response: 1.01
FPR1; tracer 0.1μM
  NanoBRET Fold Response: 1.15
FPR1; tracer 1μM
  NanoBRET Fold Response: 1.10
OPRL1; tracer 0.1μM
  NanoBRET Fold Response: 1.12
OPRL1; tracer 1μM
  NanoBRET Fold Response: 0.72
F2RL3; tracer 0.1μM
  NanoBRET Fold Response: 0.99
F2RL3; tracer 1μM
  NanoBRET Fold Response: 1.05
